The values below come from publication PMC9739877, “Discovery and Mechanistic Investigation of Piperazinone Phenylalanine Derivatives with Terminal Indole or Benzene Ring as Novel HIV-1 Capsid Modulators” (Molecules, 2022).

The nature of data set [1]: Cytotoxicity in mock-infected MT-4 cells, MTT assay. Conditions: human, 50% reduction of viability of mock-infected MT-4 cells. It is filed as cell-based. The procedure:
(§1) II. In vitro anti-HIV Assay in MT-4 Cells […]
(§2) performed using the MTT assay as described below. Stock solutions (10 × final concentration) of test compounds were added in 25 µL volumes to two series of […]
(§3) infected cells at the beginning of each experiment. Serial 5-fold dilutions of test […]
(§4) Biomek 3000 robot (Beckman Instruments, Fullerton, CA). Untreated HIV- and mock-infected cell samples were included as controls. HIV stock (50 µL) at 100-300 CCID50 […]
(§5) or mock-infected wells of the microtiter tray. Mock-infected cells were used to evaluate […]
(§6) cytotoxicity. Exponentially growing MT-4 cells were centrifuged for 5 minutes at 220 g, and the supernatant was discarded. […]
(§7) cells/mL, and 50 µL volumes were transferred to the microtiter tray wells. Five days […]
(§8) spectrophotometrically using the MTT assay. The MTT assay is based on the reduction […]
(§9) M1000, Tecan), at two wavelengths (540 and 690 nm). All data were calculated using the median absorbance value of three wells.
(§10) (OD540) of the mock-infected control sample by 50%. The concentration achieving 50%

For a further data set, the system named is HIV-2 (ROD). Nature of the data set: Anti-HIV-2 (ROD) activity in MT-4 cells, MTT assay. To be noted: Human immunodeficiency virus 2, MT4, 50% protection against HIV-induced cytotoxicity. The data set is classed as cell-based. The procedure: (§11) II. In vitro anti-HIV Assay in MT-4 Cells
(§12) Evaluation of the antiviral activity of the compounds against HIV in MT-4 cells was performed using the MTT assay as described below. Stock solutions (10 × final concentration) of test compounds were added in 25 µL volumes to two series of triplicate wells to allow simultaneous evaluation of their effects on mock- and HIV-infected cells at the beginning of each experiment. Serial 5-fold dilutions of test compounds were made directly in flat-bottomed 96-well microtiter trays using a Biomek 3000 robot (Beckman Instruments, Fullerton, CA). Untreated HIV- and mock-infected cell samples were included as controls. HIV stock (50 µL) at 100-300 CCID50 (50 % cell culture infectious doses) or culture medium was added to either the infected or mock-infected wells of the microtiter tray. Mock-infected cells were used to evaluate the effects of the test compound on uninfected cells to assess the test compounds' cytotoxicity. Exponentially growing MT-4 cells were centrifuged for 5 minutes at 220 g, and the supernatant was discarded. […]
(§13) cells/mL, and 50 µL volumes were transferred to the microtiter tray wells. Five days after infection, the viability of mock-and HIV-infected cells was examined spectrophotometrically using the MTT assay. The MTT assay is based on the reduction of yellow colored 3-(4,5-dimethylthiazol-2-yl)-2,5-diphenyltetrazolium bromide (MTT) (Acros Organics) by mitochondrial dehydrogenase activity in metabolically active cells to a blue-purple formazan that can be measured spectrophotometrically. The absorbances were read in an eight-channel computer-controlled photometer (Infinite M1000, Tecan), at two wavelengths (540 and 690 nm). All data were calculated using the median absorbance value of three wells. […]
(§14) was defined as the concentration of the test compound that reduced the absorbance (OD540) of the mock-infected control sample by 50%. The concentration achieving 50% protection against the cytopathic effect of the virus in infected cells was defined as the […]

The next data set deals with HIV-1 (IIIB). As to the kind of experiment: microbe, parasite or virus in culture. The data set is classed as cell-based. Conditions: Human immunodeficiency virus 1, MT4, 50% protection against HIV-induced cytotoxicity, MT-4 cells, MTT. The procedure: as §11, §12, §13, §14
A further data set relates to MT-4 cells. As to the kind of experiment: Cytotoxicity in mock-infected MT-4 cells, MTT assay. Conditions: 50% reduction of viability of mock-infected MT-4 cells. It is filed as cell-based. On the procedure: as §1, §2, §3, §4, §5, §6, §7, §8, §9, §10
The next data set is described as follows: in vitro. Conditions: both, human, plasma.

For the compound `COc1ccc(N(C)C(=O)[C@H](Cc2cc(F)cc(F)c2)NC(=O)CN2CCN(C(=O)c3ccc(NS(C)(=O)=O)cc3)CC2=O)cc1` [F2-7h, (S)-3-(3,5-difluorophenyl)-N-(4-methoxyphenyl)-N-methyl-2-(2-(4-(4-(methylsulfonamido)benzoyl)-2-oxopiperazin-1-yl)acetamido)propenamide], the CC50 at 5 days in data set [1] is above 190 µM. Also, the values for the EC50 in the data set on HIV-2 (ROD) and with HIV-1 (IIIB) were 183 ± 2.77 µM and 161 ± 15.4 µM, respectively.
Turning to `COc1ccc(N(C)C(=O)[C@H](Cc2cc(F)cc(F)c2)NC(=O)CN2CCN(C(=O)Cc3c[nH]c4ccccc34)CC2=O)cc1` [F2-7d, (S)-2-(2-(4-(2-(1H-indol-3-yl)acetyl)-2-oxopiperazin-1-yl)acetamido)-3-(3,5-difluorophenyl)-N-(4-methoxyphenyl)-N-methylpropanamide], in the data set with MT-4 cells, the CC50 is 57.8 ± 21.8 µM. Also, the results for the EC50 in the data set with HIV-2 (ROD) and in the data set with HIV-1 (IIIB) were 17.6 ± 9.14 µM and 29.4 ± 7.03 µM, respectively.
On to `COc1ccc(N(C)C(=O)[C@H](Cc2cc(F)cc(F)c2)NC(=O)CN2CCN(C(=O)Cc3c[nH]c4ccc(OC)cc34)CC2=O)cc1` [F2-7b, (S)-3-(3,5-difluorophenyl)-2-(2-(4-(2-(5-methoxy-1H-indol-3-yl)acetyl)-2-oxopiperazin-1-yl)acetamido)-N-(4-methoxyphenyl)-N-methylpropanamide], for which, in the data set on MT-4 cells, the CC50 is 15.9 ± 3.83 µM. Further, the EC50 with HIV-2 (ROD) and with HIV-1 (IIIB) was above 15.9 µM each time.
With `COc1ccc(N(C)C(=O)[C@H](Cc2ccccc2)NC(=O)CN2CCN(C(=O)Cc3c(C)[nH]c4ccccc34)CC2=O)cc1` [7a, (S)-N-(4-methoxyphenyl)-N-methyl-2-(2-(4-(2-(2-methyl-1H-indol-3-yl)acetyl)-2-oxopiperazin-1-yl)acetamido)-3-phenylpropanamide], in the data set on MT-4 cells, the CC50 is 108 ± 3.26 µM. Moreover, the values for the EC50 with HIV-2 (ROD) and in the data set on HIV-1 (IIIB) were 7.74 ± 0.79 µM and 14.3 ± 0.76 µM, respectively.
For `COc1ccc(N(C)C(=O)[C@H](Cc2cc(F)cc(F)c2)NC(=O)CN2CCN(C(=O)c3ccc(NC(=O)C(F)(F)F)cc3)CC2=O)cc1` [F2-7j, (S)-3-(3,5-difluorophenyl)-N-(4-methoxyphenyl)-N-methyl-2-(2-(2-oxo-4-(4-(2,2,2-trifluoroacetamido)benzoyl)piperazin-1-yl)acetamido)propenamide], the CC50 with MT-4 cells was 150 ± 25.5 µM. Also, the EC50 with HIV-2 (ROD) came to 16.6 ± 6.13 µM; in the data set with HIV-1 (IIIB), 13.7 ± 0.7 µM.
Turning to `Cc1[nH]c2ccccc2c1CC(=O)N[C@@H](Cc1ccccc1)C(=O)N(C)c1ccccc1` [PF74], in “in vitro”, the half-life at 2 μM is above 289 min and the fraction remaining at 0 h, 2 μM was 100%.
The compound `COc1ccc(N(C)C(=O)[C@H](Cc2ccccc2)NC(=O)CN2CCN(C(=O)c3ccc(NC(=O)C(F)(F)F)cc3)CC2=O)cc1` [7j, (S)-N-(4-methoxyphenyl)-N-methyl-2-(2-(2-oxo-4-(4-(2,2,2-trifluoroacetamido)benzoyl)piperazin-1-yl)acetamido)-3-phenylpropanamide] gave a 50% cytotoxic concentration (CC50) at 5 days in data set [1] above 195 µM. Also, the EC50 in the data set on HIV-2 (ROD) stood at 15 ± 4.83 µM; with HIV-1 (IIIB) it was 158 ± 6.77 µM.
As to `COc1ccc(N(C)C(=O)[C@H](Cc2ccccc2)NC(=O)CN2CCN(C(=O)Cc3c[nH]c4ccccc34)CC2=O)cc1` [7d, (S)-2-(2-(4-(2-(1H-indol-3-yl)acetyl)-2-oxopiperazin-1-yl)acetamido)-N-(4-methoxyphenyl)-N-methyl-3-phenylpropanamide], in the data set on MT-4 cells, the CC50 was determined as 112 ± 3.22 µM. In addition, the values for the EC50 in the data set on HIV-2 (ROD) and with HIV-1 (IIIB) were 4.89 ± 1.39 µM and 15 ± 0.24 µM, respectively.
In the case of `CC(C)[N+](C)(CCOC(=O)C1c2ccccc2Oc2ccccc21)C(C)C` [Propantheline bromide], in the data set “in vitro”, the half-life at 2 μM is 11.2 min; the amount remaining at 0 h, 2 μM stood at 100%; the share remaining at 10 min, 2 μM was 56.5%; the amount remaining at 0.5 h, 2 μM was found to be 19.4%. For the same compound, in the data set “in vitro”, the amount remaining at 1 h, 2 μM stood at 1.9% and the share remaining at 2 h, 2 μM amounted to 0.1%.
Turning to `COc1ccc(N(C)C(=O)[C@H](Cc2cc(F)cc(F)c2)NC(=O)CN2CCN(C(=O)Cc3c(C)[nH]c4ccccc34)CC2=O)cc1` [F2-7a, (S)-3-(3,5-difluorophenyl)-N-(4-methoxyphenyl)-N-methyl-2-(2-(4-(2-(2-methyl-1H-indol-3-yl)acetyl)-2-oxopiperazin-1-yl)acetamido)propenamide], the CC50 with MT-4 cells was found to be 76.9 ± 20 µM. In addition, the EC50 in the data set with HIV-2 (ROD) came out at 19.7 ± 6.59 µM; in the data set with HIV-1 (IIIB), 20.8 ± 5.09 µM.
Regarding `COc1ccc(N(C)C(=O)[C@H](Cc2cc(F)cc(F)c2)NC(=O)CN2CCN(C(=O)Cc3c[nH]c4ccc(Br)cc34)CC2=O)cc1` [F2-7c, (S)-2-(2-(4-(2-(5-bromo-1H-indol-3-yl)acetyl)-2-oxopiperazin-1-yl)acetamido)-3-(3,5-difluorophenyl)-N-(4-methoxyphenyl)-N-methylpropanamide], in the data set on MT-4 cells, half-maximal cytotoxicity (CC50) was put at 3.15 ± 0.4 µM. Besides, the concentration giving a half-maximal response (EC50) in the data set with HIV-2 (ROD) and with HIV-1 (IIIB) was above 3.15 µM each time.
As for `COc1ccc(N(C)C(=O)[C@H](Cc2cc(F)cc(F)c2)NC(=O)CN2CCN(C(=O)c3ccc(NC(=O)C4CC4)cc3)CC2=O)cc1` [F2-7i, (S)-N-(4-(4-(2-((3-(3,5-difluorophenyl)-1-((4-methoxyphenyl)(methyl)amino)-1-oxopropan-2-yl)amino)-2-oxoethyl)-3-oxopiperazine-1-carbonyl)phenyl)cyclopropanecarboxamide], the midpoint of cytotoxicity in the data set with MT-4 cells, the CC50, lay at 88.6 ± 11.3 µM. In addition, the EC50 with HIV-2 (ROD) was 15.1 ± 0.68 µM; with HIV-1 (IIIB) it was 14.4 ± 1.31 µM.
The corresponding values for `COc1ccc(N(C)C(=O)[C@H](Cc2cc(F)cc(F)c2)NC(=O)CN2CCN(C(=O)c3ccc(NC(C)=O)cc3)CC2=O)cc1` [F2-7g, (S)-2-(2-(4-(4-acetamidobenzoyl)-2-oxopiperazin-1-yl)acetamido)-3-(3,5-difluorophenyl)-N-(4-methoxyphenyl)-N-methylpropanamide] are 196 ± 6.8 µM, 192 ± 4.57 µM and 177 ± 16.6 µM.
In turn, `COc1ccc(N(C)C(=O)[C@H](Cc2ccccc2)NC(=O)CN2CCN(C(=O)Cc3c[nH]c4ccc(OC)cc34)CC2=O)cc1` [7b, (S)-2-(2-(4-(2-(5-methoxy-1H-indol-3-yl)acetyl)-2-oxopiperazin-1-yl)acetamido)-N-(4-methoxyphenyl)-N-methyl-3-phenylpropanamide] came in with a CC50 in the data set on MT-4 cells of 104 ± 3.37 µM. For the same compound, the EC50 with HIV-2 (ROD) amounted to 16.9 ± 3.58 µM; in the data set on HIV-1 (IIIB), 14.6 ± 0.39 µM.
Consider `COc1ccc(N(C)C(=O)[C@H](Cc2ccccc2)NC(=O)CN2CCN(C(=O)Cc3c[nH]c4ccc(Br)cc34)CC2=O)cc1` [7c, (S)-2-(2-(4-(2-(5-bromo-1H-indol-3-yl)acetyl)-2-oxopiperazin-1-yl)acetamido)-N-(4-methoxyphenyl)-N-methyl-3-phenylpropanamide], for which the CC50 with MT-4 cells was 16.4 ± 3.44 µM. Moreover, the EC50 in the data set on HIV-2 (ROD) and in the data set with HIV-1 (IIIB) was above 16.4 µM throughout.
Consider `COc1ccc(N(C)C(=O)[C@H](Cc2ccccc2)NC(=O)CN2CCN(C(=O)Cc3c[nH]c4ccc(F)cc34)CC2=O)cc1` [7f, (S)-2-(2-(4-(2-(5-fluoro-1H-indol-3-yl)acetyl)-2-oxopiperazin-1-yl)acetamido)-N-(4-methoxyphenyl)-N-methyl-3-phenylpropanamide], for which, in the data set on MT-4 cells, half-maximal cytotoxicity (CC50) was put at 90.1 ± 15.7 µM. In addition, the EC50 in the data set with HIV-2 (ROD) was 4.52 ± 0.87 µM; with HIV-1 (IIIB), 21.8 ± 4.81 µM.
Turning to `COc1ccc(N(C)C(=O)[C@H](Cc2cc(F)cc(F)c2)NC(=O)CN2CCN(C(=O)Cc3c[nH]c4ccc(O)cc34)CC2=O)cc1` [F2-7e, (S)-3-(3,5-difluorophenyl)-2-(2-(4-(2-(5-hydroxy-1H-indol-3-yl)acetyl)-2-oxopiperazin-1-yl)acetamido)-N-(4-methoxyphenyl)-N-methylpropanamide], the CC50 in the data set with MT-4 cells is 132 ± 33 µM. In addition, the results for the EC50 with HIV-2 (ROD) and in the data set with HIV-1 (IIIB) were at least 49.6 µM and above 132 µM, respectively.
With `COc1ccc(N(C)C(=O)[C@H](Cc2ccccc2)NC(=O)CN2CCN(C(=O)c3ccc(NC(=O)C4CC4)cc3)CC2=O)cc1` [7i, (S)-N-(4-(4-(2-((1-((4-methoxyphenyl)(methyl)amino)-1-oxo-3-phenylpropan-2-yl)amino)-2-oxoethyl)-3-oxopiperazine-1-carbonyl)phenyl)cyclopropanecarboxamide], the CC50 in the data set with MT-4 cells was 168 ± 19.8 µM. In addition, the EC50 in the data set with HIV-2 (ROD) is 15 ± 2.27 µM; in the data set with HIV-1 (IIIB), above 168 µM.

As usually defined, the CC50 is the concentration at which the toxic effect on the cells reaches its halfway point. In general, EC50 refers to the concentration that produces a half-maximal response. High values mean lower potency in that assay, low ones higher potency in that assay. A word on the half-life: it is the time in which the quantity being followed falls by half. Read a low half-life as fast loss. Broadly, the amount remaining is what is left of the initial amount, in per cent. High values mean less turnover, low ones more turnover.
